Reference: patent US20260285830A1, “CRYSTALLINE METHIONINE ADENOSYLTRANSFERASE 2a (MAT2A) INHIBITOR AND USES THEREOF” (Insilico Medicine IP Limited, priority 2023, published 2026)
Structures can show the parent of a compound that is named as a salt. Values belong to the compound of their own block, whether it stands above or below them.

How the values were obtained:
HCT116 MTAP+/+ = assay: Inhibition of cellular proliferation (Cell Titer Glo), HCT116 WT (MTAP+/+); assay type: cell-based; conditions: Homo sapiens, HCT-116, 120 h, 5 days treatment
Procedure: (§1) Test compound impact on cancer cell growth was assessed by treating cancer cells with compound for 5 days and then measuring proliferation using an ATP-based cell proliferation readout (Cell Titer Glo, Promega Corporation).
(§2) In a typical assay an isogenic pair of HCT116 human colon carcinoma cell lines which vary only in MTAP deletion status (HCT116 MTAP+/+ and HCT116 MTAP−/−) were plated in 96-well dishes at appropriate cell density. Following 24 hours, cells were then treated with the candidate MAT2A inhibitor. Prior to addition to cells, the compound was first serially diluted in DMSO, typically as a 3-fold serial dilution with 9 dose points.
(§3) Compound was then transferred to a working stock plate in cell culture media by adding 3 μl of compound in DMSO to 297 μl of cell culture media. […]
(§4) To measure inhibition of cellular proliferation, cells were allowed to equilibrate to room temperature for 30 minutes, and were then treated with 40 μl of Cell Titer Glo reagent. […] Luminescent signal of the Cell Titer Glo reagent was then measured using a plate-based luminometer and normalized via an ATP standard curve. This luminescence measure was converted to a proliferation index by subtracting from each datapoint the ATP luminescence measured from a control cell plate that was measured at the time of compound treatment. […]

[1] = Stability of 1 mg capsules (total impurity); assay type: physicochemical; conditions: 1 mg capsules in aluminum blister foils
Procedure: Compound 1 freebase Type A or Compound 1 maleate salt Type A was sieved with 40 mesh sieves, followed by mixing with the same amount of diluent, disintegrant and lubricant to prepare 1000 capsules. The strength of these capsules is 1 mg, and the capsules are packaged in aluminum blister foils. The stability of 1 mg capsules was investigated at 40° C./75% RH and 60° C., and the results were in Table 26.

HCT116 MTAP−/− = assay: Inhibition of cellular proliferation (Cell Titer Glo), HCT116 MTAP-/-; assay type: cell-based; conditions: Homo sapiens, HCT-116, 120 h, 5 days treatment
Procedure: as §1, §2, §3, §4

[2] = Hygroscopicity evaluation (DVS); assay type: physicochemical; conditions: for hygroscopicity (in words): DVS at 25 °C, water uptake up to 80% RH; for water uptake up to 80% RH: DVS isotherm at 25 °C between 0% RH and 95% RH
Procedure: Compound 1 Freebase Type A/B/C, Compound 1 maleate salt Type A, and Compound 1 citrate salt Type A were evaluated for hygroscopicity. DVS isotherm plots were collected at 25 ? between 0% RH and 95% RH.

[3] = Pharmacokinetics in male Sprague Dawley rats, intravenous injection; assay type: in vivo; conditions: rat, plasma, 1 mg/kg; male SD rats, n=3, intravenous injection, 0.2 mg/mL, 5 mL/kg
Procedure: Test compounds was dissolved in 5% DMSO+95% (10% HP-β-CD in Saline) to a concentration of 0.2 mg/mL and given to SD rats (Male, n=3) by intravenous injection (5 mL/kg). Blood samples were collected at 0.083 h, 0.25, 0.5, 1, 2, 4, 8, and 24 h after injection (anticoagulant:K2-EDTA). These tubes were kept in an ice bath prior to centrifugation at approximately 6800 g for 6 minutes at approximately 5° C. Samples were analyzed for the presence of the test compound with an TQ5500 mass spectrometer (AB Sciex) coupled to an ACQUITY UPLC BEH C18 (1.7 μm, 2.1 mm×50 mm) HPLC column. Gradient elution was applied consisting of ultrapure water containing 0.1% formic acid and acetonitrile containing 0.1% formic acid. Standard set of parameters including Area Under the Curve (AUC (0-t) and […]), elimination half-live (T1/2), maximum plasma concentration (Cmax), time to reach maximum plasma concentration (Tmax) will be calculated using non-compartmental analysis modules in Phoenix WinNonlin 7.0 (Pharsight, USA).

[4] = Kinetic solubility evaluation; assay type: physicochemical; conditions: H2O, SGF and FaSSIF, 37 °C, solid loading ~10 mg/mL (calculated as freebase)
Procedure: Kinetic solubility of Compound 1 Freebase Type A, Compound 1 maleate salt Type A, and Compound 1 citrate salt Type A were measured in water, SGF (Simulated Gastric Fluid), FaSSIF (Fasted State Simulated Intestinal Fluid) and FeSSIF (Fed State Simulated Intestinal Fluid) at 37 ? with solid loading of ~10 mg/mL (calculated as freebase). The results are presented in FIG. 59A, FIG. 59B, FIG. 59C, and FIG. 59D.

- kinetic solubility compared with Compound 1 Freebase Type A [4]: improved solubility
- hygroscopicity (in words) [2]: slightly hygroscopic
- water uptake up to 80% RH [2]: 1.6%
Compound: C#CCNc1nc(=O)n(-c2cccnc2C)c2cc(C(F)(F)F)cc(OC)c12 [Compound 1 citrate salt Type A, 5-methoxy-1-(2-methylpyridin-3-yl)-4-(prop-2-yn-1-ylamino)-7-(trifluoromethyl) quinazolin-2 (1H)-one]

- kinetic solubility compared with Compound 1 Freebase Type A [4]: improved solubility
- kinetic solubility compared with Compound 1 citrate salt Type A [4]: higher solubility
- Total impurity ([1]; 40° C./75% RH, 0 d, listed as Maleate Type A): 0.10%
- Total impurity ([1]; 40° C./75% RH, 10 d, listed as Maleate Type A): 2.0%
- Total impurity ([1]; 60° C., 0 d, listed as Maleate Type A): 0.10%
- Total impurity ([1]; 60° C., 5 d, listed as Maleate Type A): 12.6%
- hygroscopicity (in words) [2]: non-hygroscopic
- water uptake up to 80% RH [2]: ~ 0.07%
Compound: C#CCNc1nc(=O)n(-c2cccnc2C)c2cc(C(F)(F)F)cc(OC)c12 [Compound 1 maleate salt Type A, 5-methoxy-1-(2-methylpyridin-3-yl)-4-(prop-2-yn-1-ylamino)-7-(trifluoromethyl) quinazolin-2 (1H)-one]

More lines, now with the values behind:

Compound: C#CCNc1nc(=O)n(-c2cccnc2C)c2cc(C(F)(F)F)cc(OC)c12 [Compound 1 Freebase Type A, 5-methoxy-1-(2-methylpyridin-3-yl)-4-(prop-2-yn-1-ylamino)-7-(trifluoromethyl) quinazolin-2 (1H)-one]
- IC50 (HCT116 MTAP+/+): 21 µM
- Total impurity ([1]; 40° C./75% RH, 0 d, listed as Free form Type A): 0.21%
- Total impurity ([1]; 40° C./75% RH, 10 d, listed as Free form Type A): 0.95%
- Total impurity ([1]; 60° C., 0 d, listed as Free form Type A): 0.21%
- Total impurity ([1]; 60° C., 5 d, listed as Free form Type A): 4.4%
- Total impurity ([1]; 60° C., 10 d): 8.04%
- IC50 (HCT116 MTAP−/−): 0.198 µM
- hygroscopicity (in words) [2]: slightly hygroscopic
- water uptake up to 80% RH [2]: ~ 0.3%
- clearance [3]: 0.17 mL/min/kg

Compound: C#CCNc1nc(=O)n(-c2cccnc2C)c2cc(C(F)(F)F)cc(OC)c12 [Compound 1 Freebase Type B, 5-methoxy-1-(2-methylpyridin-3-yl)-4-(prop-2-yn-1-ylamino)-7-(trifluoromethyl) quinazolin-2 (1H)-one]
- water uptake up to 80% RH [2]: ~ 11.6%

Compound: C#CCNc1nc(=O)n(-c2cccnc2C)c2cc(C(F)(F)F)cc(OC)c12 [Compound 1 Freebase Type C, 5-methoxy-1-(2-methylpyridin-3-yl)-4-(prop-2-yn-1-ylamino)-7-(trifluoromethyl) quinazolin-2 (1H)-one]
- water uptake up to 80% RH [2]: ~ 6.7%
